Experiment: accelerated stability test
Format: physicochemical
Settings: compared with the known crystalline forms of R-(+)-α-lipoic acid
Source text: Since it is a pharmaceutically active molecule which is notoriously very reactive and tends to polymerise, improved stability obviously represents a very important quality.

SMILES: O=C(O)CCCCC1CCSS1 (stereo not drawn) [new crystalline form, R-(+)-α-lipoic acid]
- stability of the crystalline form: more stable than the known crystalline forms
